Assays:
PC3 (PSMA−) = assay type: cell-based
Description: (§1) Note: A direct comparison of all DUPA conjugates with amanitin was not performed in one experiment. The amanitin curve shown in the graph is derived from the direct comparison between HDP 30.2284 and amanitin.

LNCaP (PSMA+) = assay type: cell-based; details: for IC50: LNCaP (PSMA+); for S (selectivity): IC50 PC3 (PSMA−) / IC50 LNCaP (PSMA+); for TI for LNCaP: IC50 of free toxin / IC50 of conjugate
Description: as §1

RNA-polymerase II = RNA-polymerase II (Homo sapiens, UniProt P24928); details: complex between amanitin and RNA-polymerase II; cited from earlier work

| Structure (SMILES) | IC50 (PC3 (PSMA−)) | IC50 (LNCaP (PSMA+)) | Kd (RNA-polymerase II) | S (selectivity) (LNCaP (PSMA+)) | TI for LNCaP (LNCaP (PSMA+)) |
| --- | --- | --- | --- | --- | --- |
| CC[C@H](C)[C@@H]1NC(=O)CNC(=O)[C@@H]2Cc3c([nH]c4cc(O)ccc34)[S+]([O-])C[C@@H](NC(=O)CNC1=O)C(=O)N[C@@H](CC(N)=O)C(=O)N1C[C@H](O)C[C@H]1C(=O)N[C@@H]([C@@H](C)[C@@H](O)CO)C(=O)N2 (stereo in doubt) [α-amanitin, reference compound] | 213 nM | 479 nM | 3 nM |  |  |
| CC[C@H](C)[C@@H]1NC(=O)CNC(=O)[C@H]2Cc3c([nH]c4cc(OCc5ccc(NC(=O)[C@H](C)NC(=O)[C@@H](NC(=O)CCCCCN6C(=O)CC(SC[C@H](NC(=O)[C@H](Cc7ccccc7)NC(=O)[C@H](Cc7ccccc7)NC(=O)CCCCCCCNC(=O)CCC(NC(=O)NC(CCC(=O)O)C(=O)O)C(=O)O)C(=O)O)C6=O)C(C)C)cc5)ccc34)[S+]([O-])C[C@H](NC(=O)CNC1=O)C(=O)N[C@@H](CC(N)=O)C(=O)N1C[C@H](O)C[C@H]1C(=O)N[C@@H]([C@@H](C)[C@@H](O)CO)C(=O)N2 (stereo partly drawn) [HDP 30.2284, 6′-O-[6-(3-(((DUPA-Aoc-Phe-Phe-Cys)-sulfanyl)-2,5-dioxopyrrolidin-1-yl)-hexanamido)-Val-Ala-PAB]-α-amantin] | 1570 nM | 0.863 nM |  | 1819 | 555 |
| CC[C@H](C)[C@@H]1NC(=O)CNC(=O)[C@@H]2Cc3c([nH]c4cc(OCCCCCCN5C(=O)CC(SC[C@H](NC(=O)[C@H](Cc6ccccc6)NC(=O)[C@H](Cc6ccccc6)NC(=O)CCCCCCCNC(=O)CC[C@H](NC(=O)N[C@@H](CCC(=O)O)C(=O)O)C(=O)O)C(=O)O)C5=O)ccc34)[S@+]([O-])C[C@H](NC(=O)CNC1=O)C(=O)N[C@@H](CC(N)=O)C(=O)N1C[C@H](O)C[C@H]1C(=O)N[C@@H]([C@@H](C)[C@@H](O)CO)C(=O)N2 (stereo partly drawn) [HDP 30.2301, 6′-O-[6-(((DUPA-Aoc-Phe-Phe-Cys)-sulfanyl)-2,5-dioxopyrrolidin-1-yl)-hexyl]-α-amantin] | 1520 nM | 6.11 nM |  | 249 | 78 |
| CC[C@H](C)[C@@H]1NC(=O)CNC(=O)[C@@H]2Cc3c([nH]c4cc(OCc5ccc(NC(=O)[C@H](C)NC(=O)[C@@H](NC(=O)CN6C(=O)C(SCCOCCOCCOCCOCCOCCOCCOCCNC(=O)[C@H](Cc7ccccc7)NC(=O)[C@H](Cc7ccccc7)NC(=O)CCCCCCCNC(=O)CC[C@H](NC(=O)N[C@@H](CCC(=O)O)C(=O)O)C(=O)O)=C(SCCOCCOCCOCCOCCOCCOCCOCCNC(=O)[C@H](Cc7ccccc7)NC(=O)[C@H](Cc7ccccc7)NC(=O)CCCCCCCNC(=O)CC[C@H](NC(=O)N[C@@H](CCC(=O)O)C(=O)O)C(=O)O)C6=O)C(C)C)cc5)ccc34)[S@+]([O-])C[C@H](NC(=O)CNC1=O)C(=O)N[C@@H](CC(N)=O)C(=O)N1C[C@H](O)C[C@H]1C(=O)N[C@@H]([C@@H](C)[C@@H](O)CO)C(=O)N2 [HDP 30.2490, 6′-O-[(3,4-(((DUPA-Aoc-Phe-Phe-PEGn)-sulfanyl)-2,5-dioxopyrrolidin-1-yl)-propanamido)-Val-Ala-PAB]-α-amantin] |  |  |  | 52.5 | 62 |
| CC[C@H](C)[C@@H]1NC(=O)CNC(=O)C2Cc3c([nH]c4cc(OCc5ccc(NC(=O)[C@H](C)NC(=O)[C@@H](NC(=O)CSC[C@@H](NC(=O)[C@H](Cc6ccccc6)NC(=O)[C@H](Cc6ccccc6)NC(=O)CCCCCCCNC(=O)CCC(NC(=O)NC(CCC(=O)O)C(=O)O)C(=O)O)C(=O)O)C(C)C)cc5)ccc34)[S+]([O-])CC(NC(=O)CNC1=O)C(=O)N[C@@H](CC(N)=O)C(=O)N1CC(O)C[C@H]1C(=O)N[C@@H]([C@@H](C)[C@@H](O)CO)C(=O)N2 (stereo partly drawn) [HDP 30.2515, 6′-O-[2-((DUPA-Aoc-Phe-Phe-Cys)-sulfanyl)-acetamido-Val-Ala-PAB]-α-amantin] | 663 nM | 4.51 nM |  |  |  |
| CC[C@H](C)[C@@H]1NC(=O)CNC(=O)[C@@H]2Cc3c([nH]c4cc(OCc5ccc(NC(=O)[C@H](C)NC(=O)[C@@H](NC(=O)CCN6C(=O)CC(SC[C@H](NC(=O)[C@H](Cc7ccccc7)NC(=O)[C@H](Cc7ccccc7)NC(=O)CCCCCCCNC(=O)CC[C@H](NC(=O)N[C@@H](CCC(=O)O)C(=O)O)C(=O)O)C(=O)O)C6=O)C(C)C)cc5)ccc34)[S@+]([O-])C[C@H](NC(=O)CNC1=O)C(=O)N[C@@H](CC(N)=O)C(=O)N1C[C@H](O)C[C@H]1C(=O)N[C@@H]([C@@H](C)[C@@H](O)CO)C(=O)N2 (stereo partly drawn) [HDP 30.2535, 6′-O-[3-(3-(((DUPA-Aoc-Phe-Phe-Cys)-sulfanyl)-2,5-dioxopyrrolidin-1-yl)-propanamido)-Val-Ala-PAB]-α-amantin] |  |  |  | 191 | 253 |
| CC[C@H](C)[C@@H]1NC(=O)CNC(=O)[C@@H]2Cc3c([nH]c4cc(OCc5ccc(NC(=O)[C@H](CCCNC(N)=O)NC(=O)[C@@H](NC(=O)CCCCCN6C(=O)CC(SC[C@H](NC(=O)[C@H](Cc7ccccc7)NC(=O)[C@H](Cc7ccccc7)NC(=O)CCCCCCCNC(=O)CC[C@H](NC(=O)N[C@@H](CCC(=O)O)C(=O)O)C(=O)O)C(=O)O)C6=O)C(C)C)cc5)ccc34)[S@+]([O-])C[C@H](NC(=O)CNC1=O)C(=O)N[C@@H](CC(N)=O)C(=O)N1C[C@H](O)C[C@H]1C(=O)N[C@@H]([C@@H](C)[C@@H](O)CO)C(=O)N2 (stereo partly drawn) [HDP 30.2537, 6′-O-[6-(3-(((DUPA-Aoc-Phe-Phe-Cys)-sulfanyl)-2,5-dioxopyrrolidin-1-yl)-hexanamido)-Val-Cit-PAI3]-α-amantin] |  |  |  | 148 | 371 |
| CC[C@H](C)[C@@H]1NC(=O)CNC(=O)[C@@H]2Cc3c([nH]c4cc(OCCC(C)SSC[C@H](NC(=O)[C@H](Cc5ccccc5)NC(=O)[C@H](Cc5ccccc5)NC(=O)CCCCCCCNC(=O)CC[C@H](NC(=O)N[C@@H](CCC(=O)O)C(=O)O)C(=O)O)C(=O)O)ccc34)[S@+]([O-])C[C@H](NC(=O)CNC1=O)C(=O)N[C@@H](CC(N)=O)C(=O)N1C[C@H](O)C[C@H]1C(=O)N[C@@H]([C@@H](C)[C@@H](O)CO)C(=O)N2 (stereo partly drawn) [HDP 30.2589] |  |  |  | 22.5 | 53 |

Source: patent US11583569B2, “PSMA-targeting amanitin conjugates” (Heidelberg Pharma Research GmbH, priority 2017, dated 2023)
